Measured values as given in ChEMBL document CHEMBL3885861, “Open TG-GATES”.

Species: Rattus norvegicus
Experiment: Open TG-GATES - Regimen: Single
Type: toxicity, organism-based, Sprague-Dawley
Design: regimen Single, gender Male, age 6 weeks
Conditions: in vivo, po, route gavage; for TP / gamma-GTP / ALP / ALT / AST / BUN / CRE / Ca / Cl / DBIL / GLC / IP / K / LDH / Na / PL / RALB / TBIL / TC / TG: tissue Plasma; for APTT / Bas / Eos / Fbg / Hb / Ht / Lym / MCH / MCHC / MCV / Mono / Neu / PT / Plat / RBC / Ret / WBC: tissue Blood; for KIDNEY_L / KIDNEY_R / KIDNEY_TOTAL: tissue Kidney; for LIVER: tissue Liver
[1] = 300 mg/kg, 24 h, dose level Low
[2] = 1000 mg/kg, 3 h, dose level Middle
[3] = 1000 mg/kg, 6 h, dose level Middle
[4] = 1000 mg/kg, 9 h, dose level Middle
[5] = 1000 mg/kg, 24 h, dose level Middle
[6] = 2000 mg/kg, 3 h, dose level High
[7] = 2000 mg/kg, 6 h, dose level High
[8] = 2000 mg/kg, 9 h, dose level High
[9] = 2000 mg/kg, 24 h, dose level High

## CCOc1ccc(NC(C)=O)cc1 [PHENACETIN]
[1]
  TP: 5.7 g/dL
  gamma-GTP: 1.2 IU/L
[2]
  TERMINAL_BW: 211.4 g
  APTT: 16.8 s
  Bas: 0%
  Eos: 1%
  Fbg: 302.8 mg/dL
  Hb: 13.4 g/dL
  Ht: 39.6%
  Lym: 75.6%
  MCH: 20.9 pg
  MCHC: 33.9%
  MCV: 61.6 fL
  Mono: 2.8%
  Neu: 20.4%
  PT: 13.9 s
  Plat: 119.7 x10_4/uL
  RBC: 643.4 x10_4/ul
  Ret: 8.8%
  WBC: 62.5 x10_2/uL
  KIDNEY_L: 0.9 g
  KIDNEY_R: 0.9 g
  KIDNEY_TOTAL: 1.8 g
  LIVER: 9.2 g
  ALP: 1732.2 IU/L
  ALT: 35 IU/L
  AST: 69 IU/L
  BUN: 9.4 mg/dL
  CRE: 0.1 mg/dL
  Ca: 11 mg/dL
  Cl: 100.4 meq/L
  DBIL: 0 mg/dL
  GLC: 232 mg/dL
  IP: 10.8 mg/dL
  K: 3.6 meq/L
  LDH: 64.8 IU/L
  Na: 139.8 meq/L
  PL: 150.8 mg/dL
  RALB: 2.6 g/dL
  TBIL: 0.032 mg/dL
  TC: 87 mg/dL
  TG: 50.6 mg/dL
  TP: 5.5 g/dL
  gamma-GTP: 1.4 IU/L
[3]
  TERMINAL_BW: 206.1 g
  APTT: 18 s
  Bas: 0%
  Eos: 0.2%
  Fbg: 311.4 mg/dL
  Hb: 13.9 g/dL
  Ht: 40.7%
  Lym: 73.2%
  MCH: 21.1 pg
  MCHC: 34.2%
  MCV: 61.6 fL
  Mono: 2%
  Neu: 24.2%
  PT: 14.2 s
  Plat: 124.9 x10_4/uL
  RBC: 661 x10_4/ul
  Ret: 9%
  WBC: 54.6 x10_2/uL
  KIDNEY_L: 0.9 g
  KIDNEY_R: 0.9 g
  KIDNEY_TOTAL: 1.9 g
  LIVER: 8.8 g
  ALP: 1388 IU/L
  ALT: 40.4 IU/L
  AST: 76 IU/L
  BUN: 11.2 mg/dL
  CRE: 0.1 mg/dL
  Ca: 10.9 mg/dL
  Cl: 102.6 meq/L
  DBIL: 0 mg/dL
  GLC: 188.4 mg/dL
  IP: 9.8 mg/dL
  K: 4 meq/L
  LDH: 73.6 IU/L
  Na: 139.2 meq/L
  PL: 151.8 mg/dL
  RALB: 2.6 g/dL
  TBIL: 0.04 mg/dL
  TC: 94.2 mg/dL
  TG: 23.4 mg/dL
  TP: 5.6 g/dL
  gamma-GTP: 1.2 IU/L
[4]
  TERMINAL_BW: 205.3 g
  APTT: 17.2 s
  Bas: 0%
  Eos: 1%
  Fbg: 302.6 mg/dL
  Hb: 14 g/dL
  Ht: 40.8%
  Lym: 76.2%
  MCH: 21.1 pg
  MCHC: 34.3%
  MCV: 61.4 fL
  Mono: 3.4%
  Neu: 18.6%
  PT: 14.1 s
  Plat: 120 x10_4/uL
  RBC: 664.6 x10_4/ul
  Ret: 8.5%
  WBC: 49.5 x10_2/uL
  KIDNEY_L: 0.9 g
  KIDNEY_R: 0.9 g
  KIDNEY_TOTAL: 1.9 g
  LIVER: 8.8 g
  ALP: 1337.2 IU/L
  ALT: 38.6 IU/L
  AST: 70.2 IU/L
  CRE: 0.1 mg/dL
  Ca: 10.9 mg/dL
  Cl: 101.6 meq/L
  DBIL: 0.006 mg/dL
  GLC: 205.2 mg/dL
  IP: 9 mg/dL
  K: 3.9 meq/L
  LDH: 82 IU/L
  PL: 160.6 mg/dL
  RALB: 2.6 g/dL
  TBIL: 0.046 mg/dL
  TC: 95.2 mg/dL
  TG: 32.6 mg/dL
  TP: 5.6 g/dL
  gamma-GTP: 1.2 IU/L
[5]
  TERMINAL_BW: 204.2 g
  APTT: 17 s
  Bas: 0%
  Eos: 1%
  Fbg: 291.6 mg/dL
  Hb: 13.4 g/dL
  Ht: 40.1%
  Lym: 69%
  MCH: 20.5 pg
  MCHC: 33.5%
  MCV: 61.2 fL
  Mono: 3.2%
  Neu: 26.2%
  Plat: 127.8 x10_4/uL
  RBC: 654.4 x10_4/ul
  Ret: 7.5%
  WBC: 82.6 x10_2/uL
  KIDNEY_L: 1 g
  KIDNEY_R: 1 g
  KIDNEY_TOTAL: 1.9 g
  LIVER: 8.7 g
  ALP: 1673.4 IU/L
  ALT: 53.6 IU/L
  AST: 118.8 IU/L
  BUN: 13.6 mg/dL
  CRE: 0.2 mg/dL
  Ca: 10.9 mg/dL
  Cl: 105 meq/L
  DBIL: 0.038 mg/dL
  GLC: 167 mg/dL
  IP: 9.2 mg/dL
  K: 4.6 meq/L
  LDH: 202.2 IU/L
  Na: 141.6 meq/L
  PL: 166.6 mg/dL
  RALB: 2.6 g/dL
  TBIL: 0.052 mg/dL
  TC: 97.2 mg/dL
  TG: 92.4 mg/dL
  TP: 5.6 g/dL
  gamma-GTP: 1.2 IU/L
[6]
  TERMINAL_BW: 214.4 g
  APTT: 17.5 s
  Bas: 0%
  Eos: 1%
  Fbg: 307.2 mg/dL
  Hb: 13.9 g/dL
  Ht: 41%
  Lym: 76.8%
  MCH: 21.2 pg
  MCHC: 33.8%
  Mono: 2.8%
  Neu: 19%
  PT: 14.2 s
  Plat: 115.4 x10_4/uL
  RBC: 652.4 x10_4/ul
  Ret: 9%
  WBC: 60.2 x10_2/uL
  KIDNEY_L: 0.9 g
  KIDNEY_R: 1 g
  KIDNEY_TOTAL: 1.9 g
  LIVER: 9.2 g
  ALP: 1540.4 IU/L
  ALT: 39.8 IU/L
  AST: 70.4 IU/L
  BUN: 10.2 mg/dL
  CRE: 0.1 mg/dL
  Ca: 11 mg/dL
  Cl: 99.4 meq/L
  DBIL: 0 mg/dL
  GLC: 240.4 mg/dL
  K: 3.7 meq/L
  LDH: 78 IU/L
  Na: 139 meq/L
  RALB: 2.6 g/dL
  TBIL: 0.034 mg/dL
  TG: 47.4 mg/dL
  TP: 5.5 g/dL
  gamma-GTP: 1 IU/L
[7]
  TERMINAL_BW: 209.5 g
  Bas: 0%
  Eos: 0.4%
  Fbg: 308.8 mg/dL
  Ht: 40.1%
  Lym: 74.2%
  MCH: 21.2 pg
  MCV: 61.4 fL
  Mono: 2.2%
  PT: 14.2 s
  Plat: 115.7 x10_4/uL
  RBC: 653.8 x10_4/ul
  Ret: 8.4%
  WBC: 47.7 x10_2/uL
  KIDNEY_L: 0.9 g
  KIDNEY_R: 0.9 g
  KIDNEY_TOTAL: 1.8 g
  LIVER: 9.1 g
  ALP: 1249 IU/L
  ALT: 45.6 IU/L
  AST: 84 IU/L
  BUN: 10.2 mg/dL
  CRE: 0.1 mg/dL
  Ca: 11.1 mg/dL
  Cl: 103 meq/L
  DBIL: 0 mg/dL
  GLC: 192.2 mg/dL
  IP: 9.9 mg/dL
  K: 3.8 meq/L
  LDH: 93.2 IU/L
  Na: 139.2 meq/L
  PL: 136.4 mg/dL
  RALB: 2.7 g/dL
  TBIL: 0.032 mg/dL
  TC: 83.8 mg/dL
  TP: 5.6 g/dL
  gamma-GTP: 1.2 IU/L
[8]
  TERMINAL_BW: 210.8 g
  APTT: 16.8 s
  Bas: 0%
  Eos: 0.4%
  Fbg: 288.4 mg/dL
  Hb: 13.3 g/dL
  Ht: 38.1%
  Lym: 73.6%
  MCH: 20.9 pg
  MCHC: 35%
  MCV: 59.8 fL
  Mono: 3.2%
  Neu: 22%
  PT: 14.3 s
  Plat: 123.9 x10_4/uL
  RBC: 638.6 x10_4/ul
  Ret: 8.7%
  WBC: 54.6 x10_2/uL
  KIDNEY_L: 0.9 g
  KIDNEY_R: 0.9 g
  KIDNEY_TOTAL: 1.8 g
  LIVER: 9 g
  ALP: 1259 IU/L
  ALT: 40.6 IU/L
  AST: 70.8 IU/L
  BUN: 10.2 mg/dL
  CRE: 0.1 mg/dL
  Ca: 10.9 mg/dL
  Cl: 101.2 meq/L
  DBIL: 0 mg/dL
  GLC: 205.6 mg/dL
  IP: 9.1 mg/dL
  K: 3.6 meq/L
  LDH: 66.8 IU/L
  Na: 137.6 meq/L
  PL: 163 mg/dL
  RALB: 2.5 g/dL
  TBIL: 0.034 mg/dL
  TC: 99.6 mg/dL
  TG: 18 mg/dL
  TP: 5.5 g/dL
  gamma-GTP: 1.6 IU/L
[9]
  TERMINAL_BW: 193.2 g
  APTT: 18.2 s
  Bas: 0.6%
  Eos: 0.6%
  Fbg: 273.4 mg/dL
  Hb: 14.2 g/dL
  Ht: 41.5%
  Lym: 75%
  MCH: 20.8 pg
  MCHC: 34.2%
  MCV: 60.7 fL
  Mono: 2.6%
  Neu: 20.8%
  PT: 14.5 s
  Plat: 138.6 x10_4/uL
  RBC: 684.2 x10_4/ul
  Ret: 7.5%
  WBC: 70 x10_2/uL
  KIDNEY_L: 0.9 g
  KIDNEY_R: 1 g
  KIDNEY_TOTAL: 1.9 g
  LIVER: 7.5 g
  ALP: 1341.4 IU/L
  ALT: 44.8 IU/L
  AST: 115 IU/L
  BUN: 12 mg/dL
  CRE: 0.2 mg/dL
  Ca: 10.7 mg/dL
  Cl: 104.2 meq/L
  DBIL: 0.024 mg/dL
  GLC: 171.2 mg/dL
  IP: 9.6 mg/dL
  K: 4.3 meq/L
  LDH: 206 IU/L
  Na: 140.8 meq/L
  PL: 150.6 mg/dL
  RALB: 2.7 g/dL
  TBIL: 0.046 mg/dL
  TC: 90.4 mg/dL
  TG: 52.6 mg/dL
  TP: 5.7 g/dL
  gamma-GTP: 1 IU/L
